Reference: patent US20240252488A1 (KOREA RESEARCH INSTITUTE OF CHEMICAL TECHNOLOGY, priority 2020, published 2024)

How the values were obtained:
MLKL [1] = target: T1, MLKL (Homo sapiens, UniProt Q8NB16); experiment: MLKL degradation assay in HepG2 cell line (western blot); format: cell-based; set-up: endogenous in cells; host or cells: HepG2 or HaCaT; conditions: cell line not given; for Degradation assay (Degradation %) 1 μM: compound 1 μM; for Degradation assay (Degradation %) 10 μM: compound 10 μM
T1 sequence (Q8NB16 1-471): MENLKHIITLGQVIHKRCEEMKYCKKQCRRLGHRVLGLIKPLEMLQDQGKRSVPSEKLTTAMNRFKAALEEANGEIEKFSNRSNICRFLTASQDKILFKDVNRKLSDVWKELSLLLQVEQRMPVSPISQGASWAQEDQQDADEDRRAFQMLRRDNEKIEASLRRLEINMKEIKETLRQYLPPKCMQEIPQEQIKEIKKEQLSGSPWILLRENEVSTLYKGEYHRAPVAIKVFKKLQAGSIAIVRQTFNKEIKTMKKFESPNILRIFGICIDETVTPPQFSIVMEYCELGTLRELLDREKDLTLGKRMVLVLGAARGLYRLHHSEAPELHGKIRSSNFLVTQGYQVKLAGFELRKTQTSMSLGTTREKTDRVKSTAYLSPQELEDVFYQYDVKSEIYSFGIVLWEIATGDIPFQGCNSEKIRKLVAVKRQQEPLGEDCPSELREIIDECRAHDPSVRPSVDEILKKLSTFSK
Method in brief: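 HepG2 cells were exposed to compound at a final 1 or 10 μM for 20-24 hours at 37 °C, 5% CO2. RIPA lysates were normalized by BCA assay, 10-15 μg protein resolved by SDS-PAGE, and MLKL levels detected by western blot with chemiluminescence.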

MLKL [2] = target: T1, MLKL; experiment: Measurement of binding affinity with MLKL receptor (competitive binding assay, Kd); set-up: made in house; host or cells: HEK 293 cell line (T7 phage in E. coli BL21-derived host is also described)
Method in brief: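 Competitive displacement of MLKL, expressed in HEK 293 cells and DNA-tagged for qPCR, from immobilized ligand on biotin-blocked beads. Compounds were added from 111× DMSO stocks (final DMSO 0.9%). Kinase left in the eluates was quantified by qPCR to give Kd.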

FADD−/− Jurkat cells = experiment: Necroptosis inhibition assay, TNF-α-induced necroptosis (CellTiter-Glo 2.0); format: cell-based, human; conditions: TNF-α 15 ng/mL; for Necroptosis inhibition assay (Rescue %) 1 μM: compound 1 μM; for Necroptosis inhibition assay (Rescue %) 10 μM: compound 10 μM; for Necroptosis inhibition assay (Rescue %) 1.1 μM: compound 1.1 µM
Method in brief: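 Cells at 5.0×10^5 cells/mL were pretreated with compound (final 0.1, 1 and 10 μM) for 30 minutes at room temperature, then given TNF-α at 15 ng/mL final. After 20 to 24 hours at 37° C, 5% CO2, viability was read as ATP luminescence to calculate cytotoxicity and necroptosis inhibition rate.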

For `Nc1ncc(-c2cnn(C3CCN(CC4CN(C(=O)CNc5cccc6c5C(=O)N(C5CCC(=O)NC5=O)C6=O)CCO4)CC3)c2)nc1C(=O)OC(C(=O)Nc1ccc(F)cc1)c1ccccc1` (stereo not drawn) [TDH-306, 2-((4-fluorophenyl)amino)-2-oxo-1-phenylethyl 3-amino-6-(1-(1-((4-((2-(2,6-dioxopiperidin-3-yl)-1,3-dioxoisoindolin-4-yl)glycyl)morpholin-2-yl)methyl)piperidin-4-yl)-1H-pyrazol-4-yl)pyrazine-2-carboxylate], the “Degradation assay (Degradation %) 1 μM” value (MLKL [1]) was 62.87%, the “Degradation assay (Degradation %) 10 μM” value (MLKL [1]) was 45.31% and the Kd (MLKL [2]) was 5.4 nM. For the same molecule, the “Necroptosis inhibition assay (Rescue %) 1 μM” value (FADD−/− Jurkat cells) was 34.35% and the “Necroptosis inhibition assay (Rescue %) 10 μM” value (FADD−/− Jurkat cells) was 43.09%.

`Nc1ncc(-c2cnn(C3CCN(CC4CN(C(=O)CNc5ccc6c(c5)C(=O)N(C5CCC(=O)NC5=O)C6=O)CCO4)CC3)c2)nc1C(=O)OC(C(=O)Nc1ccc(F)cc1)c1ccccc1` (stereo not drawn) [TDH-307, 2-((4-fluorophenyl)amino)-2-oxo-1-phenylethyl 3-amino-6-(1-(1-((4-((2-(2,6-dioxopiperidin-3-yl)-1,3-dioxoisoindolin-5-yl)glycyl)morpholin-2-yl)methyl)piperidin-4-yl)-1H-pyrazol-4-yl)pyrazine-2-carboxylate] was tested, and the “Degradation assay (Degradation %) 1 μM” value (MLKL [1]) was 57.38%, the “Degradation assay (Degradation %) 10 μM” value (MLKL [1]) was 24.79% and the Kd (MLKL [2]) was 1.6 nM. The “Necroptosis inhibition assay (Rescue %) 1 μM” value (FADD−/− Jurkat cells) was 83.43% and the “Necroptosis inhibition assay (Rescue %) 10 μM” value (FADD−/− Jurkat cells) was 73.58%.

`Nc1ncc(-c2cnn(C3CCN(CC4CN(C(=O)COc5cccc6c5C(=O)N(C5CCC(=O)NC5=O)C6=O)CCO4)CC3)c2)nc1C(=O)OC(C(=O)Nc1ccc(F)cc1)c1ccccc1` (stereo not drawn) [TDH-308, 2-((4-fluorophenyl)amino)-2-oxo-1-phenylethyl 3-amino-6-(1-(1-((4-(2-((2-(2,6-dioxopiperidin-3-yl)-1,3-dioxoisoindolin-4-yl)oxy)acetyl)morpholin-2-yl)methyl)piperidin-4-yl)-1H-pyrazol-4-yl)pyrazine-2-carboxylate] was tested, and the “Degradation assay (Degradation %) 1 μM” value (MLKL [1]) was 55.12%, the “Degradation assay (Degradation %) 10 μM” value (MLKL [1]) was 69.64% and the Kd (MLKL [2]) was 1.7 nM. For the same molecule, the “Necroptosis inhibition assay (Rescue %) 1 μM” value (FADD−/− Jurkat cells) was 76.28% and the “Necroptosis inhibition assay (Rescue %) 10 μM” value (FADD−/− Jurkat cells) was 56.73%.

For `Nc1ncc(-c2cnn(C3CCN(CC4CN(C(=O)COc5ccc6c(c5)C(=O)N(C5CCC(=O)NC5=O)C6=O)CCO4)CC3)c2)nc1C(=O)OC(C(=O)Nc1ccc(F)cc1)c1ccccc1` (stereo not drawn) [TDH-309, 2-((4-fluorophenyl)amino)-2-oxo-1-phenylethyl 3-amino-6-(1-(1-((4-(2-((2-(2,6-dioxopiperidin-3-yl)-1,3-dioxoisoindolin-5-yl)oxy)acetyl)morpholin-2-yl)methyl)piperidin-4-yl)-1H-pyrazol-4-yl)pyrazine-2-carboxylate], the “Degradation assay (Degradation %) 1 μM” value (MLKL [1]) was 76.12%, the “Degradation assay (Degradation %) 10 μM” value (MLKL [1]) was 77.55% and the Kd (MLKL [2]) was 2.2 nM. The “Necroptosis inhibition assay (Rescue %) 1 μM” value (FADD−/− Jurkat cells) was 75.1% and the “Necroptosis inhibition assay (Rescue %) 10 μM” value (FADD−/− Jurkat cells) was 78.37%.

`Nc1ncc(-c2cnn(C3CCN(CC4CN(c5cccc6c5C(=O)N(C5CCC(=O)NC5=O)C6=O)CCO4)CC3)c2)nc1C(=O)OC(C(=O)Nc1ccc(F)cc1)c1ccccc1` (stereo not drawn) [TDH-310, 2-((4-fluorophenyl)amino)-2-oxo-1-phenylethyl 3-amino-6-(1-(1-((4-(2-(2,6-dioxopiperidin-3-yl)-1,3-dioxoisoindolin-4-yl)morpholin-2-yl)methyl)piperidin-4-yl)-1H-pyrazol-4-yl)pyrazine-2-carboxylate] was tested, and the “Degradation assay (Degradation %) 1 μM” value (MLKL [1]) was 35.97%, the “Degradation assay (Degradation %) 10 μM” value (MLKL [1]) was 27.19% and the Kd (MLKL [2]) was 2.6 nM. For the same molecule, the “Necroptosis inhibition assay (Rescue %) 1 μM” value (FADD−/− Jurkat cells) was 40.08% and the “Necroptosis inhibition assay (Rescue %) 10 μM” value (FADD−/− Jurkat cells) was 41.99%.

For `Nc1ncc(-c2cnn(C3CCN(CC4CN(c5ccc6c(c5)C(=O)N(C5CCC(=O)NC5=O)C6=O)CCO4)CC3)c2)nc1C(=O)OC(C(=O)Nc1ccc(F)cc1)c1ccccc1` (stereo not drawn) [TDH-311, 2-((4-fluorophenyl)amino)-2-oxo-1-phenylethyl 3-amino-6-(1-(1-((4-(2-(2,6-dioxopiperidin-3-yl)-1,3-dioxoisoindolin-5-yl)morpholin-2-yl)methyl)piperidin-4-yl)-1H-pyrazol-4-yl)pyrazine-2-carboxylate], the “Degradation assay (Degradation %) 1 μM” value (MLKL [1]) was 69.38%, the “Degradation assay (Degradation %) 10 μM” value (MLKL [1]) was 52.38% and the Kd (MLKL [2]) was 5.3 nM. For the same molecule, the “Necroptosis inhibition assay (Rescue %) 1 μM” value (FADD−/− Jurkat cells) was 57.09% and the “Necroptosis inhibition assay (Rescue %) 10 μM” value (FADD−/− Jurkat cells) was 39.01%.

`Cc1ncsc1-c1ccc(CNC(=O)[C@H]2C[C@H](O)CN2C(=O)[C@@H](NC(=O)CN2CCC(CCN3CCC(n4cc(-c5cnc(N)c(C(=O)OC(C(=O)Nc6ccc(F)cc6)c6ccccc6)n5)cn4)CC3)CC2)C(C)(C)C)cc1` (stereo partly drawn) [TDH-312, 2-((4-fluorophenyl)amino)-2-oxo-1-phenylethyl 3-amino-6-(1-(1-(2-(1-(2-(((S)-1-((2R,4S)-4-hydroxy-2-((4-(4-methylthiazol-5-yl)benzyl)carbamoyl)pyrrolidin-1-yl)-3,3-dimethyl-1-oxobutan-2-yl)amino)-2-oxoethyl)piperidin-4-yl)ethyl)piperidin-4-yl)-1H-pyrazol-4-yl)pyrazine-2-carboxylate] was tested, and the “Degradation assay (Degradation %) 1 μM” value (MLKL [1]) was 59.87%, the “Degradation assay (Degradation %) 10 μM” value (MLKL [1]) was 40.64% and the Kd (MLKL [2]) was 6.9 nM. For the same molecule, the “Necroptosis inhibition assay (Rescue %) 1 μM” value (FADD−/− Jurkat cells) was 75.61%.

`Nc1ncc(-c2cnn(C3CCN(CC4CCN(C(=O)CCc5ccc6c(c5)C(=O)N(C5CCC(=O)NC5=O)C6=O)CC4)CC3)c2)nc1C(=O)O[C@@H](C(=O)Nc1ccc(F)cc1)c1ccccc1` (stereo partly drawn) [TDH-328, (R)-2-((4-fluorophenyl)amino)-2-oxo-1-phenylethyl 3-amino-6-(1-(1-((1-(3-(2-(2,6-dioxopiperidin-3-yl)-1,3-dioxoisoindolin-5-yl)propanoyl)piperidin-4-yl)methyl)piperidin-4-yl)-1H-pyrazol-4-yl)pyrazine-2-carboxylate] was tested, and the “Degradation assay (Degradation %) 1 μM” value (MLKL [1]) was 69.07%, the “Degradation assay (Degradation %) 10 μM” value (MLKL [1]) was 58.46% and the Kd (MLKL [2]) was 1.8 nM. For the same molecule, the “Necroptosis inhibition assay (Rescue %) 1 μM” value (FADD−/− Jurkat cells) was 52.22% and the “Necroptosis inhibition assay (Rescue %) 10 μM” value (FADD−/− Jurkat cells) was 31.65%.

For `Nc1ncc(-c2cnn(C3CCN(CCC4CCN(C(=O)COc5ccc6nnn(C7CCC(=O)NC7=O)c(=O)c6c5)CC4)CC3)c2)nc1C(=O)O[C@@H](C(=O)Nc1ccc(F)cc1)c1ccccc1` (stereo partly drawn) [TDH-330, (R)-2-((4-fluorophenyl)amino)-2-oxo-1-phenylethyl 3-amino-6-(1-(1-(2-(1-(2-((3-(2,6-dioxopiperidin-3-yl)-4-oxo-3,4-dihydrobenzo[d][1,2,3]triazin-6-yl)oxy)acetyl)piperidin-4-yl)ethyl)piperidin-4-yl)-1H-pyrazol-4-yl)pyrazine-2-carboxylate], the “Degradation assay (Degradation %) 1 μM” value (MLKL [1]) was 59.64%, the “Degradation assay (Degradation %) 10 μM” value (MLKL [1]) was 49.16% and the Kd (MLKL [2]) was 0.65 nM. For the same molecule, the “Necroptosis inhibition assay (Rescue %) 1.1 μM” value (FADD−/− Jurkat cells) was 54.05 (1.1µM) % and the “Necroptosis inhibition assay (Rescue %) 10 μM” value (FADD−/− Jurkat cells) was 51.95%.

In the case of `Nc1ncc(-c2cnn(C3CCN(CCOC4CCN(C(=O)COc5cccc6c5C(=O)N(C5CCC(=O)NC5=O)C6=O)CC4)CC3)c2)nc1C(=O)O[C@@H](C(=O)Nc1ccc(F)cc1)c1ccccc1` (stereo partly drawn) [TDH-331, (R)-2-((4-fluorophenyl)amino)-2-oxo-1-phenylethyl 3-amino-6-(1-(1-(2-((1-(2-((2-(2,6-dioxopiperidin-3-yl)-1,3-dioxoisoindolin-4-yl)oxy)acetyl)piperidin-4-yl)oxy)ethyl)piperidin-4-yl)-1H-pyrazol-4-yl)pyrazine-2-carboxylate], the “Degradation assay (Degradation %) 1 μM” value (MLKL [1]) is reported as 54.86%, the “Degradation assay (Degradation %) 10 μM” value (MLKL [1]) is reported as 60.37% and the Kd (MLKL [2]) is reported as 2.6 nM. The “Necroptosis inhibition assay (Rescue %) 1.1 μM” value (FADD−/− Jurkat cells) was 49.38 (1.1 µM) % and the “Necroptosis inhibition assay (Rescue %) 10 μM” value (FADD−/− Jurkat cells) was 47.13%.

`Nc1ncc(-c2cnn(C3CCN(CCOC4CCN(C(=O)COc5ccc6c(c5)C(=O)N(C5CCC(=O)NC5=O)C6=O)CC4)CC3)c2)nc1C(=O)O[C@@H](C(=O)Nc1ccc(F)cc1)c1ccccc1` (stereo partly drawn) [TDH-332, (R)-2-((4-fluorophenyl)amino)-2-oxo-1-phenylethyl 3-amino-6-(1-(1-(2-((1-(2-((2-(2,6-dioxopiperidin-3-yl)-1,3-dioxoisoindolin-5-yl)oxy)acetyl)piperidin-4-yl)oxy)ethyl)piperidin-4-yl)-1H-pyrazol-4-yl)pyrazine-2-carboxylate] was tested, and the “Degradation assay (Degradation %) 1 μM” value (MLKL [1]) was 61.62%, the “Degradation assay (Degradation %) 10 μM” value (MLKL [1]) was 63.17% and the Kd (MLKL [2]) was 2.6 nM. For the same molecule, the “Necroptosis inhibition assay (Rescue %) 1.1 μM” value (FADD−/− Jurkat cells) was 68.62 (1.1 µM) % and the “Necroptosis inhibition assay (Rescue %) 10 μM” value (FADD−/− Jurkat cells) was 37.17%.
